This is an account of results in ChEMBL document CHEMBL5696442, “Discovery of type II inhibitors of TGFβ-activated kinase 1 (TAK1) and mitogen-activated protein kinase kinase kinase kinase 2 (MAP4K2)” (J Med Chem, 2015).

Test [1] deals with Tyrosine-protein kinase SYK (Homo sapiens) (UniProt P43405). As to the kind of experiment: Inhibition of SYK (unknown origin) at 1 uM by Ambit Kinomescan binding assay relative to control.
In test [2] the target is Ribosomal protein S6 kinase alpha-5 (Homo sapiens) (UniProt O75582). The test is described as follows: Inhibition of C-terminal RPS6KA5 kinase domain 2 (unknown origin) at 1 uM by Ambit Kinomescan binding assay relative to control.
For test [3], the target named is SNF-related serine/threonine-protein kinase (Homo sapiens) (UniProt Q9NRH2). As to the kind of experiment: Inhibition of SNRK (unknown origin) at 1 uM by Ambit Kinomescan binding assay relative to control.
The target of test [4] is Cyclin-G-associated kinase (Homo sapiens) (UniProt O14976). As to the kind of experiment: Inhibition of GAK (unknown origin) at 1 uM by Ambit Kinomescan binding assay relative to control; values are per cent of control.
Test [5] has as its target T1, Mitogen-activated protein kinase kinase kinase 5 (Homo sapiens) (UniProt Q99683).
T1 sequence (whole entry): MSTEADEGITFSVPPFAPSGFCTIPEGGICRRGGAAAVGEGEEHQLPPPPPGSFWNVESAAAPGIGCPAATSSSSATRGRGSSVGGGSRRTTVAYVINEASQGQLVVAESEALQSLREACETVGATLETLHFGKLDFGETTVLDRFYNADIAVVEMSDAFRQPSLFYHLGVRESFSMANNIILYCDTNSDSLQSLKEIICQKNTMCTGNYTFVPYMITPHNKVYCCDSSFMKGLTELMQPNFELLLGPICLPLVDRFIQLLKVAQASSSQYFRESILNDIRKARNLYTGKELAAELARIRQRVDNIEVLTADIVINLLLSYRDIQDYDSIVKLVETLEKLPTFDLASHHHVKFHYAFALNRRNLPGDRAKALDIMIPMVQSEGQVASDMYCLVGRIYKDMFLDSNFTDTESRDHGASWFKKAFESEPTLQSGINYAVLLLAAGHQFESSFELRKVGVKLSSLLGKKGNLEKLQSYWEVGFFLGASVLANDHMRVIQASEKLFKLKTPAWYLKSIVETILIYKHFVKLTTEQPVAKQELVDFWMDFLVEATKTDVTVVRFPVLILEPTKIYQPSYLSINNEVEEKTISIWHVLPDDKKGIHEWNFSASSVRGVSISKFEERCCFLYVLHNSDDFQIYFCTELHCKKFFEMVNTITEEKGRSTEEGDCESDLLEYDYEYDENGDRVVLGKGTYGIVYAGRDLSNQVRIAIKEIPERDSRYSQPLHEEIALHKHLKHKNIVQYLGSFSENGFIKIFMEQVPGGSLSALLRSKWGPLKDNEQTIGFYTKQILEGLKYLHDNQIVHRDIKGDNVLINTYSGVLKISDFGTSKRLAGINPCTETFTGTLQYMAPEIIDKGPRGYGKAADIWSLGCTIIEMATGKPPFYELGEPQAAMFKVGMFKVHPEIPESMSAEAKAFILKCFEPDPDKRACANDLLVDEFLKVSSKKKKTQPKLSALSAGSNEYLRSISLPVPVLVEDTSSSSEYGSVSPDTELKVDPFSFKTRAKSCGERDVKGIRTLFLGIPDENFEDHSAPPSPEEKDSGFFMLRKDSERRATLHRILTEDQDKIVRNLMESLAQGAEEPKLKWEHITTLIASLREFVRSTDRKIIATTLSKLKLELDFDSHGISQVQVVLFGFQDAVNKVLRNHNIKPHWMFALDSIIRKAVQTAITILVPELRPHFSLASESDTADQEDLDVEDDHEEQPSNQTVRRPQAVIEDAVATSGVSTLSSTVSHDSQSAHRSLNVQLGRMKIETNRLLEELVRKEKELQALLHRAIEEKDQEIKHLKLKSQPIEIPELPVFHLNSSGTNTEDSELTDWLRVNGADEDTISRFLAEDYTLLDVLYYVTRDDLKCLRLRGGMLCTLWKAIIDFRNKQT
As to the kind of experiment: Inhibition of MAP3K5 Lys1 labeling site harbouring IAIKEIPERDSR in human A-375 cells at 5 uM by KiNativ Profiling analysis relative to control. It is filed as cell-based.

Test [6] deals with T2, Serine/threonine-protein kinase Chk1 (Homo sapiens) (UniProt O14757).
T2 sequence (whole entry): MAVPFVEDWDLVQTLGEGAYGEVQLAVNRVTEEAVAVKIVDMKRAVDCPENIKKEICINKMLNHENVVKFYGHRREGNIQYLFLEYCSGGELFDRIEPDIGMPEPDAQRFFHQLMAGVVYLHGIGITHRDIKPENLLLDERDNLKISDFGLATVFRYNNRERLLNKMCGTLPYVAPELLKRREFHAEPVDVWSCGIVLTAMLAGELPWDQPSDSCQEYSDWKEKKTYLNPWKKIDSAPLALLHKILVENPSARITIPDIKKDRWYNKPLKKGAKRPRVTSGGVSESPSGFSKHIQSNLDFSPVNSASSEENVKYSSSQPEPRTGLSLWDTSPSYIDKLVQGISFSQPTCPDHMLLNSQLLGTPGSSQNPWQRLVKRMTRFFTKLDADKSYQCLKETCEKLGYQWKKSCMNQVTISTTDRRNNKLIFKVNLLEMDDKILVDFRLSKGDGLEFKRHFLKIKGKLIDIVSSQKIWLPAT
The test is described as follows: Inhibition of CHK1 in human Huh-7 cells at 10 uM by KiNativ Profiling analysis relative to control. It is filed as cell-based.

In test [7] the target is T3, Phosphatidylinositol 5-phosphate 4-kinase type-2 alpha (Homo sapiens) (UniProt P48426).
T3 sequence (whole entry): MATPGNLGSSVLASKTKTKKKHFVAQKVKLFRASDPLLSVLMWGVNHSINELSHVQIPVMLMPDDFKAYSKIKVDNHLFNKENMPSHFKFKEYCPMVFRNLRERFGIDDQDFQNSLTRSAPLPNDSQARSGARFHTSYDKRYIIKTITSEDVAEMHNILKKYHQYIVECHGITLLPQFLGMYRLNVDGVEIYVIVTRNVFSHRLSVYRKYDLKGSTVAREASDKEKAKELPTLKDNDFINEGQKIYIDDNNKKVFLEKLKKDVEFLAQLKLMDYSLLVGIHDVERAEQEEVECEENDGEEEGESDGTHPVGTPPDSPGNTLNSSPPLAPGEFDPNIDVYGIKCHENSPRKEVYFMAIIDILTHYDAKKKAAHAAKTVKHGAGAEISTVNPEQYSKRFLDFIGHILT
As to the kind of experiment: Inhibition of PIP5K2A LIP labeling site in human Huh-7 cells at 10 uM by KiNativ Profiling analysis relative to control. The class given is cell-based.

Test [8] is described as follows: Inhibition of TLK1/2 K2 labeling site in human Huh-7 cells at 10 uM by KiNativ Profiling analysis relative to control. The following applies: condition cancer.
The target in test [9] is Myosin light chain kinase family member 4 (Homo sapiens) (UniProt Q86YV6). The test is described as follows: Inhibition of SgK085 (unknown origin) at 10 uM by Ambit Kinomescan binding assay.
The target in test [10] is TRAF2 and NCK-interacting protein kinase (Homo sapiens) (UniProt Q9UKE5). As to the kind of experiment: Inhibition of ZC2 Lys2 labeling site in human A-375 cells at 5 uM by KiNativ Profiling analysis relative to control. The class given is cell-based.

Calls of active or inactive are those of the source. No cut-off for these calls is given here.

SNF-related serine/threonine-protein kinase (Homo sapiens), sequence (Q9NRH2 whole entry): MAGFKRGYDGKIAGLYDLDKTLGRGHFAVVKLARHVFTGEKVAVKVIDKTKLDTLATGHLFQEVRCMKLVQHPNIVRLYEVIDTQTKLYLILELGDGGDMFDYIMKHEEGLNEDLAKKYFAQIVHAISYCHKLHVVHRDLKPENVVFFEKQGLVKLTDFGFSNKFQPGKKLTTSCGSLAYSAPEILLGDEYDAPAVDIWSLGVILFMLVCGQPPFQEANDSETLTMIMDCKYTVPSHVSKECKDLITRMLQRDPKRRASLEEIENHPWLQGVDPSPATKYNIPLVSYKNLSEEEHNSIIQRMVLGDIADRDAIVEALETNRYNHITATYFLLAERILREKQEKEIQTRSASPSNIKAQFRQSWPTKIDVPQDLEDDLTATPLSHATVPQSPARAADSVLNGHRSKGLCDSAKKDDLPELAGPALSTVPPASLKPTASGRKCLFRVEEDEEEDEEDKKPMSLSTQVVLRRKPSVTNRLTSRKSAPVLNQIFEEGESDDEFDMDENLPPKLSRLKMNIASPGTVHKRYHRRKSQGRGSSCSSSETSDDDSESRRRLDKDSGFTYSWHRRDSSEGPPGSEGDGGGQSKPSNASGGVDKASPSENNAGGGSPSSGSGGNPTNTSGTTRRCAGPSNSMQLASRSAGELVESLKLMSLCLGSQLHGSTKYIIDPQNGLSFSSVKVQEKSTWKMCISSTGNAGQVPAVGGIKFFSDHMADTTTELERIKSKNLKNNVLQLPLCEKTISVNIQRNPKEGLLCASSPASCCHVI
Ribosomal protein S6 kinase alpha-5 (Homo sapiens), sequence (O75582 whole entry, looked up, the tested form may be a part): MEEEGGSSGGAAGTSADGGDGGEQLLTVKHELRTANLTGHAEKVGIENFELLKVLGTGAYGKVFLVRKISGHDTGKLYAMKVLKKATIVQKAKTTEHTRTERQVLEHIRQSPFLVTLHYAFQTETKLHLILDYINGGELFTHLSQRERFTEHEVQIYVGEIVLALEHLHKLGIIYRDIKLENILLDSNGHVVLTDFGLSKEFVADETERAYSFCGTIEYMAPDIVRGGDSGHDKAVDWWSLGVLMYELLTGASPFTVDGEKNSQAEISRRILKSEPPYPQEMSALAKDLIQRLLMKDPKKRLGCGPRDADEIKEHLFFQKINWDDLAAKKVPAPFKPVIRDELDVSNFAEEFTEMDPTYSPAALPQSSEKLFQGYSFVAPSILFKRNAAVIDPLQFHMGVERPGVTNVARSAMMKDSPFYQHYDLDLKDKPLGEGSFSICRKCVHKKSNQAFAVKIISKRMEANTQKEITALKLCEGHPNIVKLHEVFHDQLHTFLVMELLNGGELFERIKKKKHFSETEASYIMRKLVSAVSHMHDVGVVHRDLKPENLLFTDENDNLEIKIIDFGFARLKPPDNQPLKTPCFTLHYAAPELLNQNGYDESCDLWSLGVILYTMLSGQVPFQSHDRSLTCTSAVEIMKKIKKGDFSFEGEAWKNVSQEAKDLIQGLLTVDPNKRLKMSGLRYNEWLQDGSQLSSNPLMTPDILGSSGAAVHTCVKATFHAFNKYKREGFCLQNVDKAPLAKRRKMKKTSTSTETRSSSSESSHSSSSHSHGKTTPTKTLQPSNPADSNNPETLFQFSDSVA
Cyclin-G-associated kinase (Homo sapiens), sequence (O14976 whole entry): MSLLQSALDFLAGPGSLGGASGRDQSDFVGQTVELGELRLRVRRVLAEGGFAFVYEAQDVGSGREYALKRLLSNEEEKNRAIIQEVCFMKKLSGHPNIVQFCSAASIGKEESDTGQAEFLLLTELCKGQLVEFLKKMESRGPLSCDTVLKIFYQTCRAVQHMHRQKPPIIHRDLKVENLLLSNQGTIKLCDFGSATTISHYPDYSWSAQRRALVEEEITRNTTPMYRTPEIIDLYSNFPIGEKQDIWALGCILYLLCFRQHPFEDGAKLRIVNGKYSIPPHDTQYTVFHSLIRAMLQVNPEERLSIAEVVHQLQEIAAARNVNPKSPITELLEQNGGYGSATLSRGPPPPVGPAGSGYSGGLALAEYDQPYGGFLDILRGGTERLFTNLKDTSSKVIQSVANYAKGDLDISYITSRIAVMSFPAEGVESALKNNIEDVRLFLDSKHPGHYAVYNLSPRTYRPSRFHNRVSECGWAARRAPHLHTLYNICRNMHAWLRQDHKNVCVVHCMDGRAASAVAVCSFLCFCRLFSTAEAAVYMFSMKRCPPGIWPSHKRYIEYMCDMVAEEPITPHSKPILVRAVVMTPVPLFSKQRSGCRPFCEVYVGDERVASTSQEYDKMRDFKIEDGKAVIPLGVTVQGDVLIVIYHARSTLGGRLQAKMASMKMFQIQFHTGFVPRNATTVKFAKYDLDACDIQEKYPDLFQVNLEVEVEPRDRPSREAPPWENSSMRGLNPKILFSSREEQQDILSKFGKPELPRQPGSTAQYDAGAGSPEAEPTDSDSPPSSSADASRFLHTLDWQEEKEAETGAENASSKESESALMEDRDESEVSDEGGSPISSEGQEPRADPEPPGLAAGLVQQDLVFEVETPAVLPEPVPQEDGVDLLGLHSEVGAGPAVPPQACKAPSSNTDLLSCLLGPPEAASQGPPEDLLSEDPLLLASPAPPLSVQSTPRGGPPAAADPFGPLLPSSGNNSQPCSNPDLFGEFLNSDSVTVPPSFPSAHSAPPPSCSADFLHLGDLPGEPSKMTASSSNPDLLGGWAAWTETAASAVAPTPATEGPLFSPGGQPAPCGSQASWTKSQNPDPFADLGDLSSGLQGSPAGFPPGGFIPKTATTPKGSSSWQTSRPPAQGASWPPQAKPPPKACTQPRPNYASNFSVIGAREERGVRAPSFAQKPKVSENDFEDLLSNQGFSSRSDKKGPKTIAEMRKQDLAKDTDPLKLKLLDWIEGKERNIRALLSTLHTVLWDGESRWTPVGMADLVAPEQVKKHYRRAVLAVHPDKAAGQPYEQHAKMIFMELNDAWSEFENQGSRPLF
TRAF2 and NCK-interacting protein kinase (Homo sapiens), sequence (Q9UKE5 whole entry, looked up): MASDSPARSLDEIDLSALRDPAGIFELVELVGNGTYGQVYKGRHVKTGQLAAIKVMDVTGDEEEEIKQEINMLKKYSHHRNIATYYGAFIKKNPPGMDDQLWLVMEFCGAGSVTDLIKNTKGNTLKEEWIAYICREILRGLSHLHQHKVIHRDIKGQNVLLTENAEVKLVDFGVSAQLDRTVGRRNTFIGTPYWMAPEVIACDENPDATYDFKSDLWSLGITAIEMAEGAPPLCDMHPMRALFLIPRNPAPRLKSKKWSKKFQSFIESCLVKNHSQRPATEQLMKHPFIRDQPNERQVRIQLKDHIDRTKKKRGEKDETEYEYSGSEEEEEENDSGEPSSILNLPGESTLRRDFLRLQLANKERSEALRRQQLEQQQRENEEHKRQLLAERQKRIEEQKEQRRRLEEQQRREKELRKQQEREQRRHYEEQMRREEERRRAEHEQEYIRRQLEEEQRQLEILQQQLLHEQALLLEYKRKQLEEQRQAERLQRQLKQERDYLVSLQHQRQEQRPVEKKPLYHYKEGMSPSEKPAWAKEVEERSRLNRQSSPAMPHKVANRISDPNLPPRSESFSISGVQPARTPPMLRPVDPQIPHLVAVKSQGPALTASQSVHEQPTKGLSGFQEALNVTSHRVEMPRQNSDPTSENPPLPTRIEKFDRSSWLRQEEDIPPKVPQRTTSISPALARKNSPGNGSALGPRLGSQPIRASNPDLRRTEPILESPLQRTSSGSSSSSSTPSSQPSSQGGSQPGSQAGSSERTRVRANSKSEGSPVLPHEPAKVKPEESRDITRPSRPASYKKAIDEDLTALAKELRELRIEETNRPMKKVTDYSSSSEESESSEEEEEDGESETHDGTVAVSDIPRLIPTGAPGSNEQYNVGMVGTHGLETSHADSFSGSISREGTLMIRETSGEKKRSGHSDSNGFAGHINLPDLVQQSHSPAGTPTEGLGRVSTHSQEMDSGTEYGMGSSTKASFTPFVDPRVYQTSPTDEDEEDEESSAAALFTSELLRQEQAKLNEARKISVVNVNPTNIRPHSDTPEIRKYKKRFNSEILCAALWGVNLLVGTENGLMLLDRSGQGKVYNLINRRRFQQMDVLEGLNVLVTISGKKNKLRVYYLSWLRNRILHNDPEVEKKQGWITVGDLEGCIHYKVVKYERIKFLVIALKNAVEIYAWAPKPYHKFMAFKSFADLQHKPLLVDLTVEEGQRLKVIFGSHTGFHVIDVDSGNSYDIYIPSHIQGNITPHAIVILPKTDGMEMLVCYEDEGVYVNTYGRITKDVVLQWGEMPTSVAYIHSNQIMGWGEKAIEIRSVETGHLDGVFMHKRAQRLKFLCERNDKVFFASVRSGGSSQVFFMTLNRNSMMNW
Myosin light chain kinase family member 4 (Homo sapiens), sequence (Q86YV6 whole entry): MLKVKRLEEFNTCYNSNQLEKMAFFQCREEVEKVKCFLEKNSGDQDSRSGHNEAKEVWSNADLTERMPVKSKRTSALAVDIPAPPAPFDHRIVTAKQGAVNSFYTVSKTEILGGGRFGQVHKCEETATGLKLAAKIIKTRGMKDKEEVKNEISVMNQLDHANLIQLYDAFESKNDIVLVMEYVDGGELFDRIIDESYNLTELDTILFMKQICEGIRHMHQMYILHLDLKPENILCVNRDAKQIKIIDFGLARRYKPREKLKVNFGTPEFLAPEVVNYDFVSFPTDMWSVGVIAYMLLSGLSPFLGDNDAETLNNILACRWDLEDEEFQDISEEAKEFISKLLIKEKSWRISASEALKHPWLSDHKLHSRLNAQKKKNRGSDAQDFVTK

One may read the inhibition as the change of the read-out against control, counted positive when it falls. In general, residual activity refers to the signal under treatment as a percentage of the control signal. High values mean a small loss of activity, low ones a large loss of activity. Consider `CCN1CCN(Cc2ccc(NC(=O)c3ccc(C)c(/C=C/c4cnc5[nH]ccc5c4OC)c3)cc2C(F)(F)F)CC1`, for which the inhibition stood at 18% in test [1], 100% in test [2] and 100% in test [3]. The residual activity in test [4] stood at 7%.

As to `CCN1CCN(Cc2ccc(NC(=O)c3ccc(C)c(Oc4ccnc5[nH]ccc45)c3)cc2C(F)(F)F)CC1`, the inhibition was -3.2% in test [5], 12.3% in test [6], 0% in test [7] and 92.7% in test [10]. Besides, the inhibition at 10 µM in [8] was -23.9%. Besides, the inhibition result in [9] was “inactive”.
